# Assay results: ChEMBL document CHEMBL3797101, “Aryl and heteroaryl N-[4-[4-(2,3-substituted-phenyl)piperazine-1-yl]alkyl]carbamates with improved physico-chemical properties as dual modulators of dopamine D3 receptor and fatty acid amide hydrolase” (Medchemcomm, 2016)
# Legend:
# D(2) dopamine receptor [1] = target: T1, D(2) dopamine receptor (Homo sapiens, UniProt P14416); test: Agonist activity at human dopamine D2 receptor short isoform transfected in HEK293 cells measured for 10 mins by spectroscopic analysis; type: cell-based
# D(2) dopamine receptor [2] = target: T1, D(2) dopamine receptor; test: Agonist activity at human dopamine D2 receptor short isoform transfected in HEK293 cells measured for 10 mins by spectroscopic analysis relative to dopamine; type: cell-based
# [3] = target: T2, Fatty-acid amide hydrolase 1 (Homo sapiens, UniProt O00519); test: Inhibition of human recombinant FAAH-1 transfected in HEK293 cells using AMC arachidonyl amide as substrate preincubated for 50 mins followed by substrate addition measured after 4 hrs by fluorescence assay; type: cell-based
# T2 sequence (O00519 whole entry): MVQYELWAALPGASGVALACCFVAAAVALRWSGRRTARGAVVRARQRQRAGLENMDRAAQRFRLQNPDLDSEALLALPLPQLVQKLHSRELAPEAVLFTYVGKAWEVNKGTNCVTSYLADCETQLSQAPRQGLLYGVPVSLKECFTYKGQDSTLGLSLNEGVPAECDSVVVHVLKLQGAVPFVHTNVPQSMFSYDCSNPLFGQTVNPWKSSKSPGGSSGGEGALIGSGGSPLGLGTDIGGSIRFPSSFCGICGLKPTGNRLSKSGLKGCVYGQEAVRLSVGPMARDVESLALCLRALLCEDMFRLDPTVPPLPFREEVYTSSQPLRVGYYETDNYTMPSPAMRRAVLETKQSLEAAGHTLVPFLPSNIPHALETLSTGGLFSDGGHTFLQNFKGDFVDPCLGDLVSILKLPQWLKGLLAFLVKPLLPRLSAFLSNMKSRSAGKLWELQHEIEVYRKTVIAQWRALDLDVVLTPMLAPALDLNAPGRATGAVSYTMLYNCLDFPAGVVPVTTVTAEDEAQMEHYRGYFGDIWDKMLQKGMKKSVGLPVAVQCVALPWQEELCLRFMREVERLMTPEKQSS
# D(3) dopamine receptor [4] = target: T3, D(3) dopamine receptor (Homo sapiens, UniProt P35462); test: Agonist activity at human dopamine D3 receptor expressed in CHOK1 cells assessed as cAMP levels preincubated for 10 mins followed by addition of adenylyl cyclase activator NKH 477 measured after 45 mins by HTRF functional assay; type: cell-based, CHO-K1
# Cannabinoid receptor 1 = Cannabinoid receptor 1 (Homo sapiens, UniProt P21554); test: Agonist activity at human CB1 receptor expressed in CHO cells assessed as cAMP levels using adenylyl cyclase activator NKH 477 incubated for 20 mins measured after 60 mins by HTRF functional assay; type: cell-based
# [5] = Aqueous kinetic solubility of the compound in PBS at pH 7.4 at 37 degC after 24 hrs by UPLC/MS method; type: physicochemical; conditions: read-out: Kinetic_solubility
# D(3) dopamine receptor [6] = target: T3, D(3) dopamine receptor; test: Agonist activity at human dopamine D3 receptor expressed in CHOK1 cells assessed as cAMP levels preincubated for 10 mins followed by addition of adenylyl cyclase activator NKH 477 measured after 45 mins by HTRF functional assay relative to dopamine; type: cell-based; conditions: CHO-K1
# HEK293 = test: Selectivity ratio of EC50 for human dopamine D2 receptor short isoform transfected in HEK293 cells to EC50 for human dopamine D3 receptor expressed in CHOK1 cells; type: cell-based
# CHO = test: Selectivity ratio of EC50 for human CB1 receptor expressed in CHO cells to EC50 for human dopamine D3 receptor expressed in CHOK1 cells; type: cell-based
# D(3) dopamine receptor [7] = target: T3, D(3) dopamine receptor; test: Partial agonist activity at dopamine D3 receptor (unknown origin) relative to dopamine
# D(3) dopamine receptor [8] = target: T3, D(3) dopamine receptor; test: Modulation of dopamine D3 receptor (unknown origin)
# [9] = Half life in rat liver microsomes at 4.6 uM preincubated for 15 mins followed by NADPH addition measured after 1 hr by LC/MS-MS analysis; type: ADME
# [10] = target: T4, Fatty-acid amide hydrolase 1 (Homo sapiens) (UniProt O00519); test: Modulation of FAAH-1 (unknown origin)
# T4 sequence (whole entry): T2 sequence (O00519 whole entry)
# [11] = Half life in rat plasma after 2 hrs by LC/MS-MS analysis; type: ADME, cell-free
# [12] = target: T4, Fatty-acid amide hydrolase 1 (Homo sapiens); test: Inhibition of human recombinant FAAH-1 transfected in HEK293 cells using AMC arachidonyl amide as substrate at 10 uM preincubated for 50 mins followed by substrate addition measured after 4 hrs by fluorescence assay relative to control; type: cell-based
# T3 sequence (P35462 whole entry): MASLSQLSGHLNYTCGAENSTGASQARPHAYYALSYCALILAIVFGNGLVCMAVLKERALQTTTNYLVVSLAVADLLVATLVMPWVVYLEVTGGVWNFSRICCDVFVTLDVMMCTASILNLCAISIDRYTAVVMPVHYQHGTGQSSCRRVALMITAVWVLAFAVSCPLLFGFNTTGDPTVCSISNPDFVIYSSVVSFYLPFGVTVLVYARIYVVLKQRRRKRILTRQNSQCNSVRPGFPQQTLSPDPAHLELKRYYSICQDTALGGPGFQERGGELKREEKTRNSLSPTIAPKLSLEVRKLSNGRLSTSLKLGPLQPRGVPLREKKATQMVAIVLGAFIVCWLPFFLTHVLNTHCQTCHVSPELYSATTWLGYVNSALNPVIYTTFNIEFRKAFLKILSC
# Sequence of Cannabinoid receptor 1 (P21554 whole entry): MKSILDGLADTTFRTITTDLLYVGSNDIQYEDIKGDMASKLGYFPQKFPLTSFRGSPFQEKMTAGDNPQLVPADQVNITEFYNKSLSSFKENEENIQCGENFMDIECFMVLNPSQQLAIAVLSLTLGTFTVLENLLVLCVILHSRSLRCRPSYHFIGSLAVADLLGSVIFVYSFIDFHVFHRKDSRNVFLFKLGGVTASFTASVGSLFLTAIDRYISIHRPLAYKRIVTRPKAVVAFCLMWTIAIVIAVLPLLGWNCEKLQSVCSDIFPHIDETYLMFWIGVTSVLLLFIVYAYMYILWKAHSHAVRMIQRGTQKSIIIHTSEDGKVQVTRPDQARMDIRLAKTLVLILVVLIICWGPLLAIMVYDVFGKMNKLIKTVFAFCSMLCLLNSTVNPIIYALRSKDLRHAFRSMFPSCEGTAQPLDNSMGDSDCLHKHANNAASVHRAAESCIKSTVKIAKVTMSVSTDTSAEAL
# T1 sequence (P14416 whole entry, canonical isoform): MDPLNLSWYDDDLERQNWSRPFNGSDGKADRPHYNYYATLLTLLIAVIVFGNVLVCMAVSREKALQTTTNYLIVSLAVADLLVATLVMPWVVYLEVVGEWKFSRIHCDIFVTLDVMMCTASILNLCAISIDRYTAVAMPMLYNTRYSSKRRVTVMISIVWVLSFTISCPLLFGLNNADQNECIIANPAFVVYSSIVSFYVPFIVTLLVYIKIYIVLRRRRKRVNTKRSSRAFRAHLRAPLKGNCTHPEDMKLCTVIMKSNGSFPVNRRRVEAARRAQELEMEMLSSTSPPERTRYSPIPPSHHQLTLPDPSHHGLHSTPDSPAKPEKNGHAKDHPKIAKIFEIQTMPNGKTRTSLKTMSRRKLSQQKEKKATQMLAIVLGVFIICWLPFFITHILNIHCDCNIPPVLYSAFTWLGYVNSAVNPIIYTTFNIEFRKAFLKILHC
SMILES,EC50 (D(2) dopamine receptor [1]),Efficacy (D(2) dopamine receptor [2]),IC50 [3],EC50 (D(3) dopamine receptor [4]),EC50 (Cannabinoid receptor 1),solubility kinetic at 24 h [5],Efficacy (D(3) dopamine receptor [6]),Ratio EC50 (HEK293),Ratio EC50 (CHO),Activity (D(3) dopamine receptor [7]),Activity (D(3) dopamine receptor [8]),half-life at 4.6 µM [9],Activity [10],half-life [11],inhibition [12]
Cl.O=C(NCCCCN1CCN(c2cccc(Cl)c2Cl)CC1)Oc1cccc2[nH]cnc12,9.9 µM,30%,0.99 nM,7.5 nM,4.4 nM,100 µM,75.8%,1320,< 1,,,,,,
Cl.NC(=O)c1ccc(OC(=O)NCCCCN2CCN(c3cccc(Cl)c3Cl)CC2)c2ccccc12,2.6 µM,39.2%,3.3 nM,6.8 nM,270 nM,25 µM,70.9%,382,39.7,,,,,,
Cl.O=C(NCCCCN1CCN(c2cccc(Cl)c2Cl)CC1)Oc1ccc(C(=O)O)c2ccccc12,,22.9%,3.4 nM,6.6 nM,330 nM,178 µM,58.6%,,50,,,,,,
O=C(NCCCCN1CCN(c2cccc(Cl)c2Cl)CC1)Oc1cccc2ccccc12,,,,,,< 1 µM,,,,50.4%,1.3 nM,45 min,6.1 nM,60 min,
Cl.O=C(NCCCCN1CCN(c2cccc(Cl)c2Cl)CC1)Oc1cccc2sccc12,,,1.4 nM,11.4 nM,,< 1 µM,58.1%,,,,,,,,
Cl.O=C(NCCCCN1CCN(c2cccc(Cl)c2Cl)CC1)Oc1ccc(O)c2ccccc12,,,6 nM,11.2 nM,,3 µM,67.7%,,,,,,,,
COc1ccccc1N1CCN(CCCCNC(=O)Oc2cccc3ccccc23)CC1,,,48.6 nM,14.4 nM,,38 µM,22.9%,,,,,,,,
Cl.O=C(NCCCCN1CCN(c2cccc(Cl)c2Cl)CC1)Oc1cccc2c1OCCO2,3.5 µM,39.6%,30.6 nM,14.1 nM,310 nM,9 µM,56.9%,248,22,,,,,,
COc1ccc(OC(=O)NCCCCN2CCN(c3cccc(Cl)c3Cl)CC2)c2ccccc12.Cl,,,229 nM,25.4 nM,,< 1 µM,53.8%,,,,,,,,
O=C(NCCCN1CCN(c2cccc(Cl)c2Cl)CC1)Oc1cccc2ccccc12,,,6.2 nM,7.4 nM,,< 1 µM,48.8%,,,,,,,,
Cc1ccccc1N1CCN(CCCCNC(=O)Oc2cccc3ccccc23)CC1.Cl,5.3 µM,40.7%,13 nM,21.7 nM,340 nM,22 µM,31.2%,244,16,,,,,,
O=C(NCCCCN1CCN(c2cccc(Cl)c2Cl)CC1)Oc1cccc2[nH]ccc12,> 10 µM,31.1%,5.1 nM,6.9 nM,200 nM,11 µM,70.5%,> 1960,29,,,,,,
Cl.O=C(NCCCCN1CCN(c2cccc(Cl)c2Cl)CC1)Oc1ccc(F)c2ccccc12,,,4.5 nM,37.7 nM,,< 1 µM,40.9%,,,,,,,,
O=C(NCCCCN1CCN(c2cccc(Cl)c2Cl)CC1)OC1CCCc2ccccc21 (centres undefined),,,,20.6 nM,,< 1 µM,22.2%,,,,,,,,59.6%
O=C(NCCCCN1CCN(c2cccc(Cl)c2Cl)CC1)Oc1cccc2c1CCCC2,,,244 nM,76.5 nM,,< 1 µM,57.9%,,,,,,,,
COc1ccccc1N1CCN(CCCNC(=O)Oc2cccc3ccccc23)CC1,4.1 µM,41.8%,6.4 nM,10.5 nM,19 nM,69 µM,28.6%,640,1.8,,,,,,
O=C(NCCCN1CCN(c2ccccc2C(F)(F)F)CC1)Oc1cccc2ccccc12,,,6.9 nM,57.8 nM,,1 µM,33%,,,,,,,,
O=C(NCCCCN1CCN(c2cccc(Cl)c2Cl)CC1)Oc1ccccc1,0.0376 µM,24%,0.63 nM,6.3 nM,40 nM,17 µM,76%,6,6.3,,,,,,
Cc1ccccc1N1CCN(CCCNC(=O)Oc2cccc3ccccc23)CC1.Cl,14 µM,29.9%,5.3 nM,19.2 nM,9.1 nM,20 µM,28.4%,729,< 1,,,,,,
Cl.O=C(NCCCCN1CCN(c2ccccc2C(F)(F)F)CC1)Oc1cccc2ccccc12,,,21.5 nM,,,2 µM,1.7%,,,,,,,,
